Patent US8809359B2, “Phenyl amino pyrimidine bicyclic compounds and uses thereof” (YM Biosciences Australia Pty Ltd, priority 2012, dated 2014)
Where two headings read alike, the source gives them in different places.

How the values were obtained:
Assay type in all cases: biochemical
[1] = molecular target: JAK2 (Homo sapiens, UniProt O60674); assay: Enzyme screening kinase assay, JAK2
Description: (§1) Kinase assays were performed based on the method reported by Anastassiadis, T; et al Nature Biotechnology (2011); 29 (11); p 1039-p 1045 (doi:10.1038/nbt.2017).

[2] = molecular target: TYK2 (Homo sapiens, UniProt P29597); assay: Enzyme screening kinase assay, TYK2
Sequence of TYK2 (P29597 whole entry): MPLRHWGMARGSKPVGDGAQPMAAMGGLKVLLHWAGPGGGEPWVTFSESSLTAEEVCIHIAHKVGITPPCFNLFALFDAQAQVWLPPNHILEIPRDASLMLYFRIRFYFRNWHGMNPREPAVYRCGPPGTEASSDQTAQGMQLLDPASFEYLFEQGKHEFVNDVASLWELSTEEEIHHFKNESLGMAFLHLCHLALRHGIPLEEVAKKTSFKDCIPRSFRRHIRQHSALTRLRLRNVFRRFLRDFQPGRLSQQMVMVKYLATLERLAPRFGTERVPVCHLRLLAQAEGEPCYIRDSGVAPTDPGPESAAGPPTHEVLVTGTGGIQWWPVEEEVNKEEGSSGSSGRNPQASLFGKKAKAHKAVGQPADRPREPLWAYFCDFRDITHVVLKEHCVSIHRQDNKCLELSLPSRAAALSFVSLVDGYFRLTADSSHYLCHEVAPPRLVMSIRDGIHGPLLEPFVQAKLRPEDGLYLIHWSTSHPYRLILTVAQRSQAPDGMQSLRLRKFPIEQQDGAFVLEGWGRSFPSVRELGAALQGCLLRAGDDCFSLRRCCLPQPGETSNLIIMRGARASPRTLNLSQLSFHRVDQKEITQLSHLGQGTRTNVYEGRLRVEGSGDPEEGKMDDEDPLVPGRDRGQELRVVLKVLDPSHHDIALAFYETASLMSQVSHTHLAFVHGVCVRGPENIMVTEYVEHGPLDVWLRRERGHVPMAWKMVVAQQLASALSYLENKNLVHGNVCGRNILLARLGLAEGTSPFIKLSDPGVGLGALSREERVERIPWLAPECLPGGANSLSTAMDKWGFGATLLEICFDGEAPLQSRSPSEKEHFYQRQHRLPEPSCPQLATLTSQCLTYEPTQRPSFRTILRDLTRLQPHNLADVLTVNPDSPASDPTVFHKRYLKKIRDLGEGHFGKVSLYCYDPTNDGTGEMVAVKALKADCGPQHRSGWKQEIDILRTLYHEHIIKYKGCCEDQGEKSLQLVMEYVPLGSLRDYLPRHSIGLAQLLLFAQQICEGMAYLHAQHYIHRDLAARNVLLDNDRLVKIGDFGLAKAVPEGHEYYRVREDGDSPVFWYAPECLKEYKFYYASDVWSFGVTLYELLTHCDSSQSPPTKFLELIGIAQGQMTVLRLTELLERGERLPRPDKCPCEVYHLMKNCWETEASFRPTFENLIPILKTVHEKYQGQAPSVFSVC
Description: as §1

[3] = molecular target: T1, JAK3 (Homo sapiens, UniProt P52333); assay: Enzyme screening kinase assay, JAK3
T1 sequence (P52333 1-1124): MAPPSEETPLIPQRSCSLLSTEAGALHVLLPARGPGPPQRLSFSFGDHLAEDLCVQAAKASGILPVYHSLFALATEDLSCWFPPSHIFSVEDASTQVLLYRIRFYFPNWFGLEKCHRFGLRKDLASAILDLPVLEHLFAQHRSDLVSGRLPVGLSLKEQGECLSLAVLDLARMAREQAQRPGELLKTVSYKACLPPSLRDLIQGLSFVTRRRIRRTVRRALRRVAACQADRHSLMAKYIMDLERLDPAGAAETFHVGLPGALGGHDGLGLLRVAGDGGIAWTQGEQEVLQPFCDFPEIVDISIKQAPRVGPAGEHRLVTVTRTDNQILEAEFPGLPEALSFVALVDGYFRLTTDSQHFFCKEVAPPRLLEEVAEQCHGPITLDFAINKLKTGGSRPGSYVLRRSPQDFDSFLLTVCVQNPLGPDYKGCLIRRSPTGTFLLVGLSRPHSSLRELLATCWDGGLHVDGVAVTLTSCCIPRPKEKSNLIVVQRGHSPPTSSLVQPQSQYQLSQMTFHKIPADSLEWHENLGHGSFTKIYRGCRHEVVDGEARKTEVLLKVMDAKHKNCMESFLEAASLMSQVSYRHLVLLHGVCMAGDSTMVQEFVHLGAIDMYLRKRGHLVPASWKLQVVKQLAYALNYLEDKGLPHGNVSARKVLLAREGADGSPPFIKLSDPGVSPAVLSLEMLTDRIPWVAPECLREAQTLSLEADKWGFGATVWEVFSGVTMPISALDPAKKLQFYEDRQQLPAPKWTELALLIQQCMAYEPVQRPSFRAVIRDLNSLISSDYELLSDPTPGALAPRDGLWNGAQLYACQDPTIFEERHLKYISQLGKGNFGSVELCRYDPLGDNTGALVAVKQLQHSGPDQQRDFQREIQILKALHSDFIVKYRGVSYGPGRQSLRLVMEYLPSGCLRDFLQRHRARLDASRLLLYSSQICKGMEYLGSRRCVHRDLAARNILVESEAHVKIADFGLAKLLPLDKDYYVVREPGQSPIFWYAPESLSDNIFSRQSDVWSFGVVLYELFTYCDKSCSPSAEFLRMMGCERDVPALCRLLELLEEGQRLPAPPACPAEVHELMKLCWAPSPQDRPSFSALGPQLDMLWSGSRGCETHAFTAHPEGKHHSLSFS
Description: as §1

[4] = molecular target: JAK1 (Homo sapiens, UniProt P23458); assay: Enzyme screening kinase assay, JAK1
Sequence of JAK1 (P23458 whole entry): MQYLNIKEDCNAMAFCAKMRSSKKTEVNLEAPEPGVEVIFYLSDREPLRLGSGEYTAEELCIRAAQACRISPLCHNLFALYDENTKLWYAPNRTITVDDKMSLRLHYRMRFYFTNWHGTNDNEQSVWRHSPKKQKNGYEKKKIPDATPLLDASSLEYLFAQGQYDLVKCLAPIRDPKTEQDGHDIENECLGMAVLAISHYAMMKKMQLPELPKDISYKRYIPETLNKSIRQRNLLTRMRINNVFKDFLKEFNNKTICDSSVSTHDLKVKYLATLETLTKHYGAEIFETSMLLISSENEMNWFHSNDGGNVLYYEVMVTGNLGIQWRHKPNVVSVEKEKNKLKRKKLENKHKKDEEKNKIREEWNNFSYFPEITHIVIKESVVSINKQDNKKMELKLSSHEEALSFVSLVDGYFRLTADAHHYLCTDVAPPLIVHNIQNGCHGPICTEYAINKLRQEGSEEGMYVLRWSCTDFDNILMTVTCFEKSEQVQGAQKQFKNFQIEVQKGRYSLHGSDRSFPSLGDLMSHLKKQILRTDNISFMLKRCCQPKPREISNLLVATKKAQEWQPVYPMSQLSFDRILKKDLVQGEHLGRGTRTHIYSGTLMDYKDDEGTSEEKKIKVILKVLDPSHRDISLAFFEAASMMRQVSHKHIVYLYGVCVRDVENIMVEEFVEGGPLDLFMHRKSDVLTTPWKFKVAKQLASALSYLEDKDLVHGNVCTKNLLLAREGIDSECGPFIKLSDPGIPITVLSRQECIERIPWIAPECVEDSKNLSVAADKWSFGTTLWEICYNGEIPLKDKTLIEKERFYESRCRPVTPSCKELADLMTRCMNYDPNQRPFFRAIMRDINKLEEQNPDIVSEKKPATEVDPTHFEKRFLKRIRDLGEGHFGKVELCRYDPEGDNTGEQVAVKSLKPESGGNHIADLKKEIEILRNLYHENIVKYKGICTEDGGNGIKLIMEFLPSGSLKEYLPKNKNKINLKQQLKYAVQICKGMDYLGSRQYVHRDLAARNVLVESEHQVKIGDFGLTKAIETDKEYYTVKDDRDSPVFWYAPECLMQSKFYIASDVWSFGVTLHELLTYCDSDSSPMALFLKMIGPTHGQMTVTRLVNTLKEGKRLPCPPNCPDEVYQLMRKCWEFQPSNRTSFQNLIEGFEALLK
Description: as §1

[5] = Data 1, read-out: JAK2 IC50 Data 1
[6] = Data 2, read-out: JAK2 IC50 Data 2
[7] = Data 1, read-out: TYK2 IC50 Data 1
[8] = Data 2, read-out: TYK2 IC50 Data 2
[9] = Data 1, read-out: JAK3 IC50 Data 1
[10] = Data 2, read-out: JAK3 IC50 Data 2
[11] = Data 1, read-out: JAK1 IC50 Data 1
[12] = Data 2, read-out: JAK1 IC50 Data 2

Sequence of JAK2 (O60674 whole entry): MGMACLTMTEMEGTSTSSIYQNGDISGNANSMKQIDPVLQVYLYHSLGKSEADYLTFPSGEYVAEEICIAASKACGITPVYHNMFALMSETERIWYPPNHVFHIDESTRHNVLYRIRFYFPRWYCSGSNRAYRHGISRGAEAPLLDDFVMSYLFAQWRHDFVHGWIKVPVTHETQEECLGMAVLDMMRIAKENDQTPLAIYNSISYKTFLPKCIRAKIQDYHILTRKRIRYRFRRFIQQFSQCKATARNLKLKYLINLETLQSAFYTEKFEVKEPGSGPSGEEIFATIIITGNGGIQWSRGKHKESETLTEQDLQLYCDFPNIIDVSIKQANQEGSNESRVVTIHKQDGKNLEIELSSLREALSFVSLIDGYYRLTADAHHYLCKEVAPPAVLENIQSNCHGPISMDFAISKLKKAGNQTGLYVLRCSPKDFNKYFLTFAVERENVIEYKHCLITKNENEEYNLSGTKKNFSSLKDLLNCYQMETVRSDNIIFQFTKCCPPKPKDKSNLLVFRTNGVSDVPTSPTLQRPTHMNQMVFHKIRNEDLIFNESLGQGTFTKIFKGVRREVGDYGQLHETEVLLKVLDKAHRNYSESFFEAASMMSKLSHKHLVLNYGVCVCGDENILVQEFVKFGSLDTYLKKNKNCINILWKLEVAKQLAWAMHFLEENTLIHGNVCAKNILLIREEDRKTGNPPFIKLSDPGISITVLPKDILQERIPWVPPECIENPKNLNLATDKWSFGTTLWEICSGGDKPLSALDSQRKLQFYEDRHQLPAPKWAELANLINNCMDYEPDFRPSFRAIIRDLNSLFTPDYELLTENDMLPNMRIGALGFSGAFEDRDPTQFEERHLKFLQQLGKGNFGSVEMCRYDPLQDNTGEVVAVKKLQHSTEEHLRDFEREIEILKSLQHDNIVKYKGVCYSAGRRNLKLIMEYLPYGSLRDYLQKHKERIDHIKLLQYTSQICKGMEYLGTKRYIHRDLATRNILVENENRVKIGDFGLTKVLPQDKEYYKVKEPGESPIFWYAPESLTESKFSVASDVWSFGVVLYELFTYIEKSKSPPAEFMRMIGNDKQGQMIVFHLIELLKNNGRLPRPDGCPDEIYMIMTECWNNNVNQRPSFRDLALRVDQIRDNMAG

Work on N#CCNC(=O)c1ccc(-c2ccnc(Nc3ccc(N4CC5(COC5)C4)cc3)n2)cc1 [Compound 11, 4-(2-((4-(2-oxa-6-azaspiro[3.3]heptan-6-yl)phenyl)amino)pyrimidin-4-yl)-N-(cyanomethyl)benzamide] yielded an IC50 [1, 5] of 10.6 nM, an IC50 [1, 6] of 10.8 nM and an IC50 [2, 7] of 9.47 nM. The IC50 [2, 8] was 8.54 nM, the IC50 [3, 9] was 33.8 nM and the IC50 [3, 10] was 26.3 nM. It also gave an IC50 [4, 11] of 32.8 nM and an IC50 [4, 12] of 47.4 nM.

N#CCNC(=O)c1ccc(-c2ccnc(Nc3ccc(N4CCC5(CCO5)CC4)cc3)n2)cc1 [Compound 2, 4-(2-((4-(1-oxa-7-azaspiro[3.5]nonan-7-yl)phenyl)amino)pyrimidin-4-yl)-N-(cyanomethyl)benzamide] was tested, and the IC50 [1, 5] was 22.2 nM, the IC50 [1, 6] was 24.5 nM and the IC50 [2, 7] was 5.09 nM. The IC50 [2, 8] was 5.65 nM, the IC50 [3, 9] was 41.8 nM and the IC50 [3, 10] was 44.8 nM. For the same compound, the IC50 [4, 11] was 30.6 nM and the IC50 [4, 12] was 37.9 nM.

For N#CCNC(=O)c1ccc(-c2ccnc(Nc3ccc(N4CC5(CCO5)C4)cc3)n2)cc1 [Compound 1, 4-(2-((4-(1-oxa-6-azaspiro[3.3]heptan-6-yl)phenyl)amino)pyrimidin-4-yl)-N-(cyanomethyl)benzamide], the IC50 [1, 5] was 108 nM, the IC50 [1, 6] was 103 nM and the IC50 [2, 7] was 38 nM. For the same compound, the IC50 [2, 8] was 35 nM, the IC50 [3, 9] was 213 nM and the IC50 [3, 10] was 194 nM. For the same compound, the IC50 [4, 11] was 224 nM and the IC50 [4, 12] was 215 nM.

N#CCNC(=O)c1ccc(-c2ccnc(Nc3ccc(N4C[C@H]5C[C@@H]4CO5)cc3)n2)cc1 [Compound 10, 4-(2-((4-((1R,4R)-2-oxa-5-azabicyclo[2.2.1]heptan-5-yl)phenyl)amino)pyrimidin-4-yl)-N-(cyanomethyl)benzamide] showed an IC50 [1, 5] of 17 nM, an IC50 [1, 6] of 16.8 nM and an IC50 [2, 7] of 4.31 nM. The IC50 [2, 8] was 2.58 nM, the IC50 [3, 9] was 22.1 nM and the IC50 [3, 10] was 27 nM. The IC50 [4, 11] was 16 nM and the IC50 [4, 12] was 15.9 nM.

With N#CCNC(=O)c1ccc(-c2ccnc(Nc3ccc(N4C[C@@H]5C[C@H]4CO5)cc3)n2)cc1 [Compound 9, 4-(2-((4-((1S,4S)-2-oxa-5-azabicyclo[2.2.1]heptan-5-yl)phenyl)amino)pyrimidin-4-yl)-N-(cyanomethyl)benzamide] the IC50 [1, 5] was 11.1 nM, the IC50 [1, 6] was 13.4 nM and the IC50 [2, 7] was 8.07 nM. It also gave an IC50 [2, 8] of 7.4 nM, an IC50 [3, 9] of 12.8 nM and an IC50 [3, 10] of 14 nM. It also gave an IC50 [4, 11] of 22.4 nM and an IC50 [4, 12] of 21.7 nM.

With N#CCNC(=O)c1ccc(-c2ccnc(Nc3ccc(N4CC[C@@]5(CCO5)C4)cc3)n2)cc1 [Compound 8, (R)-4-(2-((4-(1-oxa-6-azaspiro[3.4]octan-6-yl)phenyl)amino)pyrimidin-4-yl)-N-(cyanomethyl)benzamide] the IC50 [1, 5] was 43.5 nM, the IC50 [1, 6] was 46.4 nM and the IC50 [2, 7] was 9.98 nM. The IC50 [2, 8] was 9.98 nM, the IC50 [3, 9] was 79.3 nM and the IC50 [3, 10] was 78.5 nM. The IC50 [4, 11] was 56.9 nM and the IC50 [4, 12] was 35.7 nM.

N#CCNC(=O)c1ccc(-c2ccnc(Nc3ccc(N4CCC[C@]5(CCO5)C4)cc3)n2)cc1 [Compound 5, (S)-4-(2-((4-(1-oxa-6-azaspiro[3.5]nonan-6-yl)phenyl)amino)pyrimidin-4-yl)-N-(cyanomethyl)benzamide] was tested, and the IC50 [1, 5] was 30 nM, the IC50 [1, 6] was 25.9 nM and the IC50 [2, 7] was 0.69 nM. For the same compound, the IC50 [2, 8] was 0.91 nM, the IC50 [3, 9] was 60.9 nM and the IC50 [3, 10] was 56.3 nM. It also gave an IC50 [4, 11] of 10.1 nM and an IC50 [4, 12] of 10.2 nM.

With N#CCNC(=O)c1ccc(-c2ccnc(Nc3ccc(N4CC[C@]5(CCO5)C4)cc3)n2)cc1 [Compound 7, (S)-4-(2-((4-(1-oxa-6-azaspiro[3.4]octan-6-yl)phenyl)amino)pyrimidin-4-yl)-N-(cyanomethyl)benzamide] the IC50 [1, 5] was 30.3 nM, the IC50 [1, 6] was 34 nM and the IC50 [2, 7] was 4.87 nM. For the same compound, the IC50 [2, 8] was 4.29 nM, the IC50 [3, 9] was 60.9 nM and the IC50 [3, 10] was 50.8 nM. It also gave an IC50 [4, 11] of 31.5 nM and an IC50 [4, 12] of 29.2 nM.

For N#CCNC(=O)c1ccc(-c2ccnc(Nc3ccc(N4CC5CC(C4)O5)cc3)n2)cc1 [Compound 3, 4-(2-((4-(6-oxa-3-azabicyclo[3.1.1]heptan-3-yl)phenyl)amino)pyrimidin-4-yl)-N-(cyanomethyl)benzamide], the IC50 [1, 5] was 47 nM, the IC50 [1, 6] was 45 nM and the IC50 [2, 7] was 6.83 nM. It also gave an IC50 [2, 8] of 7.3 nM, an IC50 [3, 9] of 80.1 nM and an IC50 [3, 10] of 82.4 nM. It also gave an IC50 [4, 11] of 32.3 nM and an IC50 [4, 12] of 41.7 nM.

For N#CCNC(=O)c1ccc(-c2ccnc(Nc3ccc(N4CCC[C@@]5(CCO5)C4)cc3)n2)cc1 [Compound 6, (R)-4-(2-((4-(1-oxa-6-azaspiro[3.5]nonan-6-yl)phenyl)amino)pyrimidin-4-yl)-N-(cyanomethyl)benzamide], the IC50 [1, 5] was 14.2 nM, the IC50 [1, 6] was 14.1 nM and the IC50 [2, 7] was 2.94 nM. The IC50 [2, 8] was 2.14 nM, the IC50 [3, 9] was 33.4 nM and the IC50 [3, 10] was 32.7 nM. It also gave an IC50 [4, 11] of 17.5 nM and an IC50 [4, 12] of 19.8 nM.

For N#CCNC(=O)c1ccc(-c2ccnc(Nc3ccc(N4CC5CCC(C4)O5)cc3)n2)cc1 [Compound 4, 4-(2-((4-(8-oxa-3-azabicyclo[3.2.1]octan-3-yl)phenyl)amino)pyrimidin-4-yl)-N-(cyanomethyl)benzamide], the IC50 [1, 5] was 29.3 nM, the IC50 [1, 6] was 29.1 nM and the IC50 [2, 7] was 5.22 nM. The IC50 [2, 8] was 6.17 nM, the IC50 [3, 9] was 92.3 nM and the IC50 [3, 10] was 80.8 nM. The IC50 [4, 11] was 28.8 nM and the IC50 [4, 12] was 28.6 nM.
